Experimental data published in patent publication US20080221063A1, “Heterocyclic Sulfonamide Derivatives As Inhibitors Of Factor Xa” (ASTRAZENECA AB, priority 2005, published 2008).

Target: T1, human FXa (Homo sapiens, UniProt P00742)
T1 construct: FXa solution (human FXa, Haematologic Technologies Inc., Essec Junction, Vt., USA); purchased Haematologic Technologies Inc
Assay: Measurement of Factor Xa Inhibition (chromogenic substrate method)
Type: biochemical
Conditions: chromogenic substrate S-2765, 40 min incubation at 37° C., pH 7.4
Procedure: a) Measurement of Factor Xa Inhibition
The FXa inhibitor potency was measured with a chromogenic substrate method, in a Plato 3300 robotic microplate processor (Rosys AG, CH-8634 Hombrechtikon, Switzerland), using 96-well, half-volume microtiter plates (Costar, Cambridge, Mass., USA; Cat No 3690). Stock solutions of test substance in DMSO (72 μL), 10 mmol/L, alternatively 1 mmol/L were diluted serially 1:3 (24+48 μL) with DMSO to obtain ten different concentrations, which were analyzed as samples in the assay, together with controls and blanks. As control sample melagatran was analysed. The dilutions of each test substance were analyzed consecutively, row-wise on the microtiter plate, with wasp cycles between substances to avoid cross-contamination. […] The final assay concentrations were: test substance 0.0068-133, respectively 0.00068-13.3 μmol/L, S-2765 0.40 mmol/L (KM=0.25 mmol/L) and FXa […]. The linear absorbance increase at 405 n=during 40 min incubation at 37° C. was used for calculation of percent inhibition for the test samples, as compared to references without inhibitor and/or enzyme. […]

T1 sequence (P00742 235-488 limits assumed): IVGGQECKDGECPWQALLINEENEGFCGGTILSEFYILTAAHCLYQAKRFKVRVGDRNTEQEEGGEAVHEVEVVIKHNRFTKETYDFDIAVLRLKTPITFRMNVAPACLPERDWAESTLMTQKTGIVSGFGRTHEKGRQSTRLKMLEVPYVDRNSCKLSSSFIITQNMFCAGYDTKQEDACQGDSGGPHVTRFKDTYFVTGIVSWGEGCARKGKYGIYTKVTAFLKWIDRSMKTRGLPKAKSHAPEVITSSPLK
T1 sequence (P00742 41-179 partner limits assumed): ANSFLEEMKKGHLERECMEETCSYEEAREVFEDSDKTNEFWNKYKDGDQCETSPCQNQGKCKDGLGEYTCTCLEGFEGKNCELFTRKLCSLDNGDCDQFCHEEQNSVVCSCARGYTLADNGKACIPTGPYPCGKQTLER

IC50 [nM]	SMILES
5	CCNC(=O)C1CN(S(=O)(=O)c2ccc3c(Cl)c[nH]c3c2)CC(=O)N1CC1CCN(c2ccc(=O)n(C)n2)CC1 (centres unmarked) [Example 4, 4-(3-Chloro-1H-indole-6-sulfonyl)-1-[1-(1-methyl-6-oxo-1,6-dihydro-pyridazin-3-yl)-piperidin-4-ylmethyl]-6-oxo-piperazine-2-carboxylic acid ethylamide]
2.3	CC(C)OC(=O)C1CN(S(=O)(=O)c2ccc3c(Cl)c[nH]c3c2)CC(=O)N1CC1CCN(c2ccc(=O)n(C)n2)CC1 (centres unmarked) [Example 13, 4-(3-Chloro-1H-indole-6-sulfonyl)-1-[1-(1-methyl-6-oxo-1,6-dihydro-pyridazin-3-yl)-piperidin-4-ylmethyl]-6-oxo-piperazine-2-carboxylic acid isopropyl ester]
